In US20180345047A1, “METHOD OF PROMOTING HAIR GROWTH” (Yeda Research and Development Co. Ltd., priority 2015, published 2018):

Assays:
[1] = tested on: senescent epidermal cells; experiment: Elimination of senescent cells in the skin epidermis of p14ARF-expressing mice (SA-β-Gal, p14ARF, cleaved caspase-3 stains); type: in vivo, K5-rtTA/tet-p14 mice; conditions: 75 mg/kg intraperitoneally
Description: (§1) Mouse experiments: K5-rtTA/tet-p14, described in (Toakrsly-Amiel et al.) were held on a mixed C57B1/129sv background. Mice received doxycycline (2 mg/ml) in the drinking water at 3 weeks of age for activation of the p14ARF transgene. Sibling tet-p14 single transgene control mice received doxycycline for the same period. After four weeks of transgene activation, ABT-737 (75 mg/kg in 30% propylene glycol, 5% Tween 80, 3.3% dextrose in water pH 4-5) or vehicle was injected into p14ARF-expressing mice intraperitoneally for 2 or 4 consecutive days. Mice were then shaved, sacrificed and back skins were paraffin embedded for immunohistology or frozen in OCT solution for cryosectioning and SA-β-gal stains.
Immunohistology: Immunohistology was performed according to standard procedures on 5 μm paraffin sections, using Peroxidase Substrate kits (Vector) or fluorescently labeled secondary antibodies (Jackson). Antibodies used: p14ARF (Abcam), CC3 (Cell Signaling), Ki67 (Labvision) and K15 (Santa Cruz). […] Positive cells were scored from >10 microscopic fields in each sample either by direct microscopic observation (SA-β-gal, p14) or on collected images (all other stains).
The present inventors set out to test whether the survival signals provided by Bcl-2 family members are necessary for the survival and retention of senescent cells in tissues. […] Concomitantly, the percentage of epidermal cells in which the transgenic p14^ARF protein could be detected was reduced (FIGS. 1D-E), indicating preferred elimination of transgene-expressing cells. Increased levels of apoptosis were detected in the epidermis after 2 days of ABT-737 treatment (FIGS. 1F-G), consistent with increased apoptosis as the mechanism of senescent cell elimination. […]

[2] = tested on: hair-follicle stem cells in the bulge; experiment: Hair-follicle bulge stem cell proliferation and number in p14ARF-expressing mice (Ki67/K15 stain, CD34/CD49f FACS); type: in vivo, K5-rtTA/tet-p14 mice; conditions: vs vehicle
Description: as §1
Immunohistology: Immunohistology was performed according to standard procedures on 5 μm paraffin sections, using Peroxidase Substrate kits (Vector) or fluorescently labeled secondary antibodies (Jackson). Antibodies used: p14ARF (Abcam), CC3 (Cell Signaling), Ki67 (Labvision) and K15 (Santa Cruz). For Senescence-associated β-Galactosidase (SA-β-gal) stains, 10-12 μm cryosections of OCT-embedded mouse skins were fixed in 0.5% glutaraldehyde for 15 minutes, stained over night at 37° C. with 40 mM phosphate buffer pH=6 with 5 mM K4Fe(CN)6, 5 mM K3Fe(CN)6, 150 mM NaCl, 2 mM MgCl2 and 1 mg/ml X-gal, washed in PBS, fixed in 95% ethanol for 15 minutes, counterstained with nuclear fast red, dehydrated and mounted. Bright field images were collected using an Olympus CX41 and DS-Fi1 camera and processed using NIS Elements software (Nikon). Fluorescent images were taken using an Olympus FV1000 confocal microscope. Positive cells were scored from >10 microscopic fields in each sample either by direct microscopic observation (SA-β-gal, p14) or on collected images (all other stains).
Upon p14^ARF activation in mice at 3 weeks of age nearly all hair follicles are arrested in the resting (telogen) state, and only rare stem cells in the bulge express the proliferation marker Ki67^36 (FIGS. 5H-I). […] This effect was also evident three days after treatment was stopped (FIGS. 2A-B). […]

`CN(C)CC[C@H](CSc1ccccc1)Nc1ccc(S(=O)(=O)NC(=O)c2ccc(N3CCN(Cc4ccccc4-c4ccc(Cl)cc4)CC3)cc2)cc1[N+](=O)[O-]` [ABT-737] was tested, and the “number of senescent cells in the epidermis, determined by SA-β-Gal staining” value ([1]; 4 consecutive days, after 4 weeks p14ARF activation, relative to vehicle-treated mice) was “dramatically reduced”, the “percentage of epidermal cells in which the transgenic p14ARF protein could be detected” value ([1]; 2 day treatment, vs vehicle) was “reduced” and the “levels of apoptosis in the epidermis (cleaved caspase-3)” value ([1]; after 2 days of treatment, vs vehicle) was “Increased”. The “number of CD34+/CD49f high bulge stem cells” value ([2]; FACS of epidermal cells after 2 days of treatment) was “increased”, the “increase in proliferating (Ki67+) hair-follicle stem cells in the bulge after end of treatment” value ([2]; treated 2 days, three days after treatment was stopped) was “also evident” and the “numbers of proliferating (Ki67+) hair-follicle stem cells in the bulge” value ([2]; treatment after 2-4 weeks of p14ARF induction, 75 mg/kg intraperitoneally) was “increase”.
